Test results from ChEMBL document CHEMBL1141759, “Steroids from the Antarctic octocoral Anthomastus bathyproctus” (2005).

Columns and labels:
Assay type in all cases: functional
MDA-MB-231 = assay: Cytotoxicity against human MDA-MB-231 cells by SRB assay
A549 = assay: Cytotoxicity against human A549 cells by SRB assay
HT-29 = assay: Cytotoxicity against human HT-29 cells by SRB assay

SMILES | GI50 (MDA-MB-231) [µM] | GI50 (A549) [µM] | GI50 (HT-29) [µM]
COC(=O)C(C)/C=C/[C@@H](C)[C@H]1CC[C@H]2[C@@H]3CCC4=CC(=O)C=C[C@]4(C)[C@H]3CC[C@]12C (stereo partly drawn) | 22.4 | 21.4 | 20.2
COC(=O)/C(C)=C/CC[C@@H](C)[C@H]1CC[C@H]2[C@@H]3CCC4=CC(=O)C=C[C@]4(C)[C@H]3CC[C@]12C | 21.2 | 16.5 | 15.3
COC(=O)/C(C)=C/C[C@@H](OC(C)=O)[C@@H](C)[C@H]1CC[C@H]2[C@@H]3CCC4=CC(=O)C=C[C@]4(C)[C@H]3CC[C@]12C | 18.4 | – | –
C=C(CC[C@](C)(O)[C@H]1CC[C@H]2[C@@H]3CCC4=CC(=O)C=C[C@]4(C)[C@H]3CC[C@@]21C)C(C)C | – | 23.4 | –
